In one data set the target is T1, hTfR (Homo sapiens, UniProt P02786).
T1 construct: Full length coding regions for hLDLR, mLDLR, rLDLR and hTfR were amplified by RT-PCR; expressed in transfected cells
Nature of the data set: Image J quantification of co-localization with hTfR-GFP (control). The format is cell-based. Conditions: CHO-hTfR-GFP, 10 μM.

A further data set concerns the target T2, hLDLR (Homo sapiens, UniProt P01130).
T2 construct: Full length coding regions for hLDLR, mLDLR, rLDLR and hTfR were amplified by RT-PCR; expressed in transfected cells
The data set can be described thus: Image J quantification of co-localization with hLDLR-GFP. The format is cell-based. The note with it: CHO-hLDLR-GFP, 10 μM, n = 3.

In the next data set the target is T3, mLDLR (Mus musculus, UniProt P35951).
T3 construct: cells expressing LDLR in the zona fasciculata of WT mice; from tissue; host or cells: adrenal gland of C57Bl/6J mice (WT; ldlr-/- as control)
T3 sequence (P35951 22-862): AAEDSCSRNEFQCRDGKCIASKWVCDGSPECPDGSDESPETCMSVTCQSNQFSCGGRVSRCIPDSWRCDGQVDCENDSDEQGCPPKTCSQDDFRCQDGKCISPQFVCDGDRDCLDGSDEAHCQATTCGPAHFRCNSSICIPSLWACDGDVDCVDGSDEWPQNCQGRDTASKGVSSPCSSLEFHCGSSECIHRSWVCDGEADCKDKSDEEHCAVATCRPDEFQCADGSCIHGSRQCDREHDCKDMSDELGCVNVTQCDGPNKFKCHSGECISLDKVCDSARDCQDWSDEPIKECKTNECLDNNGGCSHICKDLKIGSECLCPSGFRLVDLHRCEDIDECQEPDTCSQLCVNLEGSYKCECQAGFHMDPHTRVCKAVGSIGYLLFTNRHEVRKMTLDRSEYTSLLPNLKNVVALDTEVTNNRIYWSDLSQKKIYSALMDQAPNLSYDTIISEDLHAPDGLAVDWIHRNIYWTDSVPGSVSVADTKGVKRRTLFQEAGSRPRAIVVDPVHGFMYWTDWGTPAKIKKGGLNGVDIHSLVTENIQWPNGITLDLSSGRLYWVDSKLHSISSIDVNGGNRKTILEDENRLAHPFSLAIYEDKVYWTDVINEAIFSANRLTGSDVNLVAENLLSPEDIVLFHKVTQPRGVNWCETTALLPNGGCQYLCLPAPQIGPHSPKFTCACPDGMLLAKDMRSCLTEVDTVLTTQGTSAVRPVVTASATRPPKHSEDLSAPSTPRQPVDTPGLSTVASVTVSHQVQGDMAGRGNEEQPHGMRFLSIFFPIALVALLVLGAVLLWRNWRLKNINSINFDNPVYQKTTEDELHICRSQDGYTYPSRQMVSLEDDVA
The note with it: in vivo, iv, 0.5 mg/kg. On the procedure:
For immunohistochemistry, transcardiac NaCl 0.9% perfusion was followed by 50 mL of PBS 1X- 4% paraformaldehyde (PFA). Mice organs were then removed and snap frozen in cold isopentane. Cryostat (Leica CM-3050-S) sections (14 μm thick) were stored at −80°C. Organ sections were first permeabilized and blocked for 1 hr at room temperature using a solution of PBS 1X, 0.1% Triton X-100 and 3% Bovine Serum Albumin (BSA). Sections were then incubated overnight at 4°C with anti-Fc-A594 (goat, 1/200, Jackson ImmunoResearch) and anti-mLDLR (goat 1/200, R&D Systems), followed by anti-goat-Alexa 488 (donkey, 1/800, Life Technologies) for 1 hr at room temperature. Nuclei were stained with Hoechst (0.5 μg/mL, Life Technologies). Omission of the primary antibody was used as control and no immunostaining was observed. Sections were mounted using Prolong Gold Antifading reagent (Life Technologies) on Superfrost glass slides. Images were taken and processed using a confocal microscope (LSM 700) and Zen software (Zeiss, Jena, Germany).

Where a SMILES comes first, the peptide text is derived from it. The star is where a group is joined. Propionyl = CCC(=O)*

T2 sequence (P01130 22-860): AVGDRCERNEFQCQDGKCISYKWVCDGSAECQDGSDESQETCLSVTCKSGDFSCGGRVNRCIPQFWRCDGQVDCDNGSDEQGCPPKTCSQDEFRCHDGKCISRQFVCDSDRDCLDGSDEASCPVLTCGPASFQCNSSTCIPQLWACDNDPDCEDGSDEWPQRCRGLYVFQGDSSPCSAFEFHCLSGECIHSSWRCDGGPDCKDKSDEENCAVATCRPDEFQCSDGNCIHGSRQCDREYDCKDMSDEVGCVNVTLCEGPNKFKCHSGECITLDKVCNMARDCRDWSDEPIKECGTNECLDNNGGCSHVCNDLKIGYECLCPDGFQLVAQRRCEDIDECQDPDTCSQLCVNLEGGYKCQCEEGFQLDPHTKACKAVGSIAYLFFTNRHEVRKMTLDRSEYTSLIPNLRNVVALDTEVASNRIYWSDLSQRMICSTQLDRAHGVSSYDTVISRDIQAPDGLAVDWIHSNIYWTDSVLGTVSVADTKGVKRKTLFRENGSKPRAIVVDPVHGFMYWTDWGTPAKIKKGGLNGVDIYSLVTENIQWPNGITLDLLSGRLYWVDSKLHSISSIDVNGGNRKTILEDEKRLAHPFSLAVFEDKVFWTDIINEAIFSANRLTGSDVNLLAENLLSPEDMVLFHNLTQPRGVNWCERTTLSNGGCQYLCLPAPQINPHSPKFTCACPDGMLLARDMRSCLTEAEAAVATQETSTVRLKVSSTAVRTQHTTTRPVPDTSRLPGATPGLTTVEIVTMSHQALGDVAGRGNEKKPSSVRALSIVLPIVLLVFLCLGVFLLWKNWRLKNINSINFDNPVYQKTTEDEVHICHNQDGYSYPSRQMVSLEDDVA
T1 sequence (P02786 whole entry): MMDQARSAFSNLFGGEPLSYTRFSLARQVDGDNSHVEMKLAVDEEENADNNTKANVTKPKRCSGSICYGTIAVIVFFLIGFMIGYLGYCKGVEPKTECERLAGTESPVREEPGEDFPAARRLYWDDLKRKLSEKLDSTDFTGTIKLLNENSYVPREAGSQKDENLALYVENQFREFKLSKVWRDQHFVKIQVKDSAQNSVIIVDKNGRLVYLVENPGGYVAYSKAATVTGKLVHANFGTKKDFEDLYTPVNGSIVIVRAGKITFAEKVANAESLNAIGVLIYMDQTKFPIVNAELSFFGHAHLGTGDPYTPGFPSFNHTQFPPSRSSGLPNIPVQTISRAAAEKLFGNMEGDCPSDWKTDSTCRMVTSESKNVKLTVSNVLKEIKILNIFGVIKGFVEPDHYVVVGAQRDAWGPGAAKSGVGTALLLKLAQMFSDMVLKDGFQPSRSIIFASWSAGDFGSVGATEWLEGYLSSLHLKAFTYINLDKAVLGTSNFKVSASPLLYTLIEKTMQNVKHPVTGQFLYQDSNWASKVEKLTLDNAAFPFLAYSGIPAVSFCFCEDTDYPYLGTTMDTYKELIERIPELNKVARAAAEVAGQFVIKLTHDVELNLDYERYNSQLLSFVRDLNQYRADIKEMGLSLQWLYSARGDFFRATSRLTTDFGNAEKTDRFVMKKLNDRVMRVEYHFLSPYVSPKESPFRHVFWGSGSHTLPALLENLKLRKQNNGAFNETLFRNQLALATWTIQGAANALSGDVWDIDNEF
Experimental for hLDLR: Cells alone or incubated 1 hr at 37°C with phage or peptide conjugates (10μM for S-Tag, fluorescent or siRNA conjugates and 10nM for Fc conjugates) were washed and subsequently fixed with 4% paraformaldehyde, washed again and incubated for 30 min at room temperature in PBS containing 3% BSA with or without 0.1% triton X-100 (Sigma-Aldrich). Cells were washed with PBS and incubated for 1 hr with primary antibodies directed against the hLDLR (rabbit, 1/100, Acris, Herford, Germany), against M13 bacteriophage (mouse, 1/3000, Sigma-Aldrich), against the S-Tag (goat, 1/250, Abcam) or against the Fc (mouse, 1/100, Jackson ImmunoResearch), followed by 3 washes with PBS and incubation with Alexa fluor 488, 594 or 647 anti-rabbit, anti-mouse or anti-goat secondary antibodies (1/800, Invitrogen). Cell nuclei were labeled with Hoechst #33258 (0.5 μg/mL, Invitrogen). […] In some experiments, binding and endocytosis of macromolecular complexes were assessed on live CHO-hLDLR-EGFP cells. […] Following fixation, cell nuclei were labeled with Hoechst#33258. Mounted slides were acquired with a Leica TCS SP2 confocal microscope (Leica Microsystems, Heidelberg, Germany). Images were analyzed using ImageJ software and quantification of co-localization between two markers was performed using the JaCoP plug-in, by calculating Mander’s correlation coefficients from unmodified images.

Turning to `CCC(=O)N[C@@H]1CSSC(C)(C)[C@@H](C(=O)NCC(=O)NCC(=O)NCC(=O)N[C@@H](CCCCN)C(=O)N[C@@H](CCC(=O)O)C(=O)N[C@H](C(=O)N[C@@H](C)C(=O)N[C@@H](C)C(=O)N[C@@H](C)C(=O)N[C@@H](CCCCN)C(=O)N[C@@H](Cc2ccccc2)C(=O)N[C@@H](CCC(=O)O)C(=O)N[C@@H](CCCNC(=N)N)C(=O)N[C@@H](CCC(N)=O)C(=O)N[C@@H](Cc2c[nH]cn2)C(=O)N[C@@H](CCSC)C(=O)N[C@@H](CC(=O)O)C(=O)N[C@@H](CO)C(N)=O)[C@@H](C)O)NC(=O)CNC(=O)[C@H](CCCNC(=N)N)NC(=O)[C@H](CC(C)C)NC(=O)[C@H](CCCNC(=N)N)NC(=O)[C@@H]2CSCN2C(=O)[C@H](CCSC)NC1=O`, the “co-localization with hTfR” value on hTfR was “No co-localization”. On to `CCC(=O)N[C@@H](CC(C)C)C(=O)N[C@@H](CCCNC(=N)N)C(=O)N[C@@H](CCCCN)C(=O)N[C@@H](CC(C)C)C(=O)N[C@@H](CCCNC(=N)N)C(=O)N[C@@H](CCCCN)C(=O)N[C@@H](CCCNC(=N)N)C(=O)N[C@@H](CC(C)C)C(=O)N[C@@H](CC(C)C)C(=O)N[C@@H](CC(C)C)C(=O)N[C@@H](CCCNC(=N)N)C(=O)N[C@@H](CCCCN)C(=O)N[C@@H](CC(C)C)C(=O)N[C@@H](CCCNC(=N)N)C(=O)N[C@@H](CCCCN)C(=O)N[C@@H](CCCNC(=N)N)C(=O)N[C@@H](CC(C)C)C(=O)N[C@@H](CC(C)C)C(=O)NCC(=O)NCC(=O)NCC(=O)N[C@@H](CCCCN)C(=O)N[C@@H](CCC(=O)O)C(=O)N[C@H](C(=O)N[C@@H](C)C(=O)N[C@@H](C)C(=O)N[C@@H](C)C(=O)N[C@@H](CCCCN)C(=O)N[C@@H](Cc1ccccc1)C(=O)N[C@@H](CCC(=O)O)C(=O)N[C@@H](CCCNC(=N)N)C(=O)N[C@@H](CCC(N)=O)C(=O)N[C@@H](Cc1c[nH]cn1)C(=O)N[C@@H](CCSC)C(=O)N[C@@H](CC(=O)O)C(=O)N[C@@H](CO)C(N)=O)[C@@H](C)O` [ApoE2-S-Tag] (Propionyl-LRKLRKRLLLRKLRKRLLGGGKETAAAKFERQHMDS-NH2), for which the “percentage of hLDLR that co-localized with the S-Tag peptide” value at hLDLR is reported as “under 10%”. Consider “Propionyl-SVIDALQYKLEGTTRLTRKRGLKLATALSLSNKFVEGSGGGKETAAAKFERQHMDS-NH2 [ApoB-S-Tag]”, for which, on hLDLR, the “percentage of hLDLR that co-localized with the S-Tag peptide” value was “under 10%”. As to “hIgG1Fc-SMCC- (Pr- cRPLGRMC-G-(CH2)2-S)2 (disulfide) [(VH4Sc)2-Fc, human IgG1-Fc chemically conjugated to scrambled VH4Sc peptide via sulfo-SMCC]”, the “Fc labeling in adrenal gland zona fasciculata” value with mLDLR was “no Fc labeling”.

The values are drawn from article PMC5828360, “Identification and characterization of highly versatile peptide-vectors that bind non-competitively to the low-density lipoprotein receptor for in vivo targeting and delivery of small molecules and protein cargos” (PLoS ONE, 2018).
